One assay concerns Clostridia perfringens. In kind it is cell-based. Conditions: minimum inhibitory concentration towards Clostridia perfringens, in vitro.
`CCCCC(=O)OCC(O)CO` (stereo not shown) [Glyceryl monovalerate] had an MIC of 15 mmol.

`CCC(=O)O` [Propionic acid] came in with an MIC of 62 mmol.

In the case of `CCCC(=O)OCC(O)CO` (stereo not shown) [Glyceryl monobutyrate], the MIC was 125 mmol.

With `CCCCC(=O)O` [Valeric acid], the MIC was 15 mmol.

As for `CCC(=O)OCC(O)CO` (stereo not shown) [Glyceryl monopropionate], the MIC came out at 250 mmol.

The compound `CCCC(=O)O` [Butyric acid] had an MIC of 62 mmol.

A further assay concerns Clostridium perfringens-induced necrotic enteritis. In kind it is in vivo, broiler chicken. Conditions: Ross 308 broilers, lower concentration in feed (2.5/2/1.5 kg/ton weeks 1/2/3), adsorbed on silica carrier, C. perfringens challenge days 17-20, scoring day 21; positive control 71%.
With `CCCCC(=O)OCC(O)CO` (stereo not shown) [Glyceryl monovalerate], the “animals within the group diagnosed as necrotic enteritis positive (macroscopic lesion score ≥2)” value turned out to be 27%.

Source of the values: patent US10420745B2 (priority 2015, dated 2019).
